System: Klebsiella pneumoniae
Assay: Photochemical inactivation of K. pneumoniae in plasma or platelets in PAS with amotosalen and UVA LED illumination
Type: cell-based
Conditions: 150 μM amotosalen nominal, triplicate

In the case of `Cc1oc2c(C)c3oc(=O)cc(C)c3cc2c1COCCN` [S-59, 3-(2-aminoethoxymethyl)-2,5,9-trimethylfuro[3,2-g]chromen-7-one], the “Log Inactivation” value (plasma, INTERCEPT plasma set, 6.4 J/cm^2, UVA LEDs 346-349 nm) is reported as 6.3 ± 0.3 log, the “Log Inactivation” value (plasma, INTERCEPT plasma set, 6.4 J/cm^2, UVA LEDs 346-349 nm, listed as amotosalen) is reported as 6.3±0.3 log and the “Log Inactivation” value (platelets/PAS, LV set, 3.9 J/cm^2, UVA LEDs 346-349 nm) is reported as 7.2 ± 0.2 log. For the same compound, the “Log Inactivation” value (platelets/PAS, LV set, 3.9 J/cm^2, UVA LEDs 346-349 nm, listed as amotosalen) was 7.2±0.2 log.

Source: patent US12558442B2, “Biological fluid treatment systems” (priority 2019, dated 2026)
